Results: patent EP3936131A1, “COMPOUNDS FOR THE TREATMENT OF ZIKA” (Dompe' Farmaceutici S.P.A., priority 2020, dated 2022)

Test system: ZIKV (HS-2015-BA-01)
Assay: Plaque titration assay of supernatant from ZIKV-infected Vero CCL-81 cells treated with compound
Format: cell-based, Zika Virus
Details: 30, 10 and 3 microM (AEE-788 and Olcegepant: 10 and 3 microM); MOI 0.1; two treatments 24 h apart; compared to vehicle control; values only in Figures 1 to 8
Experimental: The above compounds selected by the CADD analysis were tested in a ZIKV Vero CCL-81 cells (kidney epithelial cells from African green monkey) assay. This assay is based on viral infection of Vero cells followed by visual monitoring of cytopathic effects of the virus.
In details, the above compounds were diluted to the final concentrations of 30 microM, 10 microM and 3 microM. The final volume required for treatment was 200 microliters per well, in a total of 12 wells.
For infection of the cells, ZIKV (HS-2015-BA-01), isolated from a viremic patient with symptomatic infection in Bahia State, Brazil, in 2015, was used. The complete genome of the virus is under access KX520666 in Genbank. Viral dilutions were prepared in Multiplicity of Infection (MOI) at 0.1 according to a standardized method.
In particular, 37,9 microl of virus (6x10^7 pfu/mL) was used or a total of 25.000 microl (25 ml) RPMI-0% FBS medium
100 microliters of the viral dilution (MOI 0,1) were added to each well and incubated at 5% of CO2 at T= 37°C for 1 hour for adsorption step, swift rocking every 15'.
After discarding the supernatant, 200 microliters of diluted compounds at the different concentrations described above, or vehicle were added for each compound and left in incubation at 5% of CO2 at T= 37°C for 24 hours.
After 24 hours of the first treatment the treatment was repeated a second time, with the same concentration of each compound, and at the same conditions (5% of CO2 at T= 37°C for […]).
After 24 hours, the supernatant was collected and used to perform MTT, LDH plaque titration assays, as described above.
Vero CCL-81 cells (kidney epithelial cells from African green monkey) were seeded in 24-well plates at a density of […].
Cells were maintained in RPMI 1640 medium (Cultilab) supplemented with 10% FBS (Cultilab), 2 mM L-glutamine (Gibco) and 100U/50µg penicillin/streptomycin (Sigma-Aldrich) for 24 h at 37°C in a 5% CO2 incubator.
Serial ten-fold dilutions of viral suspension in sterile dilution tubes were prepared (10-1 up to 10-4). To this aim, tubes were filled with 450 microl of medium 0% SFB and 50 microl of the sample added on the first tube. The same procedure was repeated to obtain serial dilutions by passing 50 microliters to the next dilution and successively for the other dilutions. 300 µl of each serial dilution were added into each of the two wells of 24-well plate, maintaining two wells without infection.
The inoculated plate was incubated at 37°C for 1 hour in a 5% CO2 incubator to allow virus adsorption, swift rocking every 15'. Once discard the cell supernatant from all wells, 1 ml of 1,60% semi-solid carboxymethyl cellulose (CMC) overlay medium with 2% FBS was added to each well to limit the virus dissemination.
The plate was left 4 days at 37°C in a 5% CO2 incubator. Then cell monolayer was incubated with 1 ml of the 10% formol for a minimum 18 hours at room temperature for fixation. Once removed and fixed the overlay medium, the cell monolayer was washed in running water, stained with 1 ml of the 0.04% Violet crystal for 1 hour at room temperature, and the count of viral plaques to calculate plaque-forming unit (PFU) was conducted.

## CCN1CCN(Cc2ccc(-c3cc4c(N[C@H](C)c5ccccc5)ncnc4[nH]3)cc2)CC1 [AEE-788, 6-[4-(4-Ethylpiperazin-1-ylmethyl)phenyl]-N-[1(R)-phenylethyl]-7H-pyrrolo[2,3-d]pyrimidin-4-amine]
  virus replication (viral load expressed as log10 plaque forming equivalents): inhibition of virus replication

## Cn1c(=O)n(-c2ccc(C(C)(C)C#N)cc2)c2c3cc(-c4cnc5ccccc5c4)ccc3ncc21 [Dactolisib, 2-Methyl-2-[4-[3-methyl-2-oxo-8-(3-quinolinyl)-2,3-dihydro-1 H-imidazo[4,5-c]quinolin-1-yl]phenyl]propanenitrile]
  virus replication (viral load expressed as log10 plaque forming equivalents): inhibition of virus replication

## CCOc1nc2cccc(C(=O)OC(C)OC(=O)OC3CCCCC3)c2n1Cc1ccc(-c2ccccc2-c2nnn[nH]2)cc1 (racemic) [Candesartan cilexetil, (±)-2-Ethoxy-1-[2'-(1 H-tetrazol-5-yl)biphenyl-4-ylmethyl]-1 H-benzimidazole-7-carboxylic acid 1-(cyclohexyloxycarbonyloxy) ethyl ester]
  virus replication (viral load expressed as log10 plaque forming equivalents): inhibition of virus replication

## Cc1cc(/C=C/C#N)cc(C)c1Nc1ccnc(Nc2ccc(C#N)cc2)n1.Cl [Rilpivirine hydrochloride, 4-[4-[4-[(E)-2-Cyanovinyl]-2,6-dimethylphenylamino]pyrimidin-2-ylamino]benzonitrile hydrochloride]
  virus replication (viral load expressed as log10 plaque forming equivalents): inhibition of virus replication

## NCCCC[C@H](NC(=O)[C@@H](Cc1cc(Br)c(O)c(Br)c1)NC(=O)N1CCC(N2Cc3ccccc3NC2=O)CC1)C(=O)N1CCN(c2ccncc2)CC1 [Olcegepant, N-[2-[5-Amino-1 (S)-[4-(4-pyridyl)piperazin-1-ylcarbonyl]pentylamino]-1(R)-(3,5-dibromo-4-hydroxybenzyl)-2-oxoethyl]-4-(2-oxo-1,2,3,4-tetrahydroquinazolin-3-yl)piperidine-1-carboxamide]
  virus replication (viral load expressed as log10 plaque forming equivalents): inhibition of virus replication

## CC[C@@H]([C@H](C)O)n1ncn(-c2ccc(N3CCN(c4ccc(OC[C@@H]5CO[C@@](Cn6cncn6)(c6ccc(F)cc6F)C5)cc4)CC3)cc2)c1=O [Posaconazole, 4-[4-[4-[4-[5(R)-(2,4-Difluorophenyl)-5-(1,2,4-triazol-1-ylmethyl)tetrahydrofuran-3(R)-ylmethoxy]phenyl]piperazin-1-yl]phenyl]-2-[1(S)-ethyl-2(S)-hydroxypropyl]-3,4-dihydro-2H-1,2,4-triazol-3-one]
  virus replication (viral load expressed as log10 plaque forming equivalents): inhibition of virus replication
